{"source": "ChEMBL document CHEMBL4354807", "about": "“Natural Product Albiziabioside A Conjugated with Pyruvate Dehydrogenase Kinase Inhibitor Dichloroacetate To Induce Apoptosis-Ferroptosis-M2-TAMs Polarization for Combined Cancer Therapy” (J Med Chem, 2019)", "key": {"[1]": {"test_system": "Mus musculus", "assay": "Modulation of tumor immunosuppressive activity in BALB/c mouse xenografted with mouse 4T1 cells assessed as increase in IFNgamma expression in tumor administered intratumorally every other day for 14 days measured at 2 days post-last dose by ELISA", "assay_type": "functional, organism-based"}, "[2]": {"test_system": "Mus musculus", "assay": "Modulation of tumor immunosuppressive activity in BALB/c mouse xenografted with mouse 4T1 cells assessed as increase in IFNgamma expression in serum administered intratumorally every other day for 14 days measured at 2 days post-last dose by ELISA", "assay_type": "functional, organism-based"}, "[3]": {"assay": "Cytotoxicity against human HBMEC cells assessed as reduction in cell viability after 72 hrs by MTT assay", "assay_type": "cell-based"}, "[4]": {"test_system": "4T1", "assay": "Inhibition of glycolysis in mouse 4T1 cells expressing PDK assessed as reduction in intracellular lactate level at 2 uM after 6 hrs by microplate reader assay", "assay_type": "functional, cell-based"}, "[5]": {"test_system": "MCF7", "assay": "(§1) Induction of metabolic reversal from aerobic glycolysis to oxidative phosphorylation in human MCF7 cells assessed as effect on extracellular acidification rate at 2 uM pretreated for 4 hrs followed by glucose addition after 25 mins followed by subsequent addition of oligomycin A after 50 mins followed by 2-DG addition after 80 mins by seahorse XF24 extracellular flux analyzer assay", "assay_type": "functional, cell-based"}, "[6]": {"assay": "Toxicity in BALB/c nude mouse xenografted with human MCF7 cells assessed as effect on blood urea nitrogen at 2 mg/kg, iv administered every 2 days for 2 weeks measured after 14 days", "assay_type": "organism-based", "settings": "in vivo, 336 h"}, "[7]": {"test_system": "MCF7", "assay": "Induction of ferroptosis in human MCF7 cells assessed as cell death at 2 uM pretreated with iron chelating agent deferoxamine followed by compound treatment by MTT assay", "assay_type": "functional, cell-based"}, "[8]": {"test_system": "4T1", "assay": "Reversal of immunosuppression against mouse 4T1 cells implanted in BALB/c mouse assessed as decrease in weight of distal tumor at 2 mg/kg administered intratumorally every 2 days for 2 weeks measured after 14 days", "assay_type": "functional, organism-based"}, "[9]": {"test_system": "MCF7", "assay": "Induction of ferroptosis in human MCF7 cells assessed as reduction in cellular GSH level at 2 uM after 24 hrs by microplate reader assay", "assay_type": "functional, cell-based"}, "[10]": {"test_system": "MCF7", "assay": "Induction of ferroptosis in human MCF7 cells assessed as cell death at 2 uM pretreated with antioxidant vitamin E followed by compound treatment by MTT assay", "assay_type": "functional, cell-based"}, "[11]": {"test_system": "MCF7", "assay": "Downregulation of GPX4 expression in human MCF7 cells at 2 uM after 48 hrs by Western blot analysis", "assay_type": "functional, cell-based"}, "[12]": {"test_system": "MCF7", "assay": "Downregulation of PDK expression in human MCF7 cells after 48 hrs by Western blot analysis", "assay_type": "functional, cell-based"}, "[13]": {"test_system": "Mus musculus", "assay": "Modulation of tumor immunosuppressive activity in BALB/c mouse xenografted with mouse 4T1 cells assessed as decrease in IL10 expression in tumor administered intratumorally every other day for 14 days measured at 2 days post-last dose by ELISA", "assay_type": "functional, organism-based"}, "[14]": {"assay": "Toxicity in BALB/c nude mouse xenografted with human MCF7 cells assessed as mouse death at 2 mg/kg, iv administered every 2 days for 2 weeks measured after 14 days", "assay_type": "organism-based", "settings": "in vivo, 336 h"}, "[15]": {"assay": "Selectivity index, ratio IC50 for cytotoxicity against human HBMEC cells assessed as reduction in cell viability after 72 hrs by MTT assay to IC50 for anticancer activity against human HCT116 cells assessed as reduction in cell viability after 72 hrs by MTT assay"}, "[16]": {"assay": "Toxicity in BALB/c nude mouse xenografted with human MCF7 cells assessed as effect on ALT level in blood at 2 mg/kg, iv administered every 2 days for 2 weeks measured after 14 days", "assay_type": "organism-based", "settings": "in vivo, 336 h"}, "[17]": {"assay": "Selectivity index, ratio IC50 for cytotoxicity against human HBMEC cells assessed as reduction in cell viability after 72 hrs by MTT assay to IC50 for anticancer activity against mouse 4T1 cells assessed as reduction in cell viability after 72 hrs by MTT assay"}, "[18]": {"test_system": "4T1", "assay": "Reversal of immunosuppression against mouse 4T1 cells implanted in BALB/c mouse assessed as growth inhibition of primary tumor at 2 mg/kg administered intratumorally every 2 days for 2 weeks measured after 14 days", "assay_type": "functional, organism-based"}, "[19]": {"test_system": "MCF7", "assay": "Synergistic anticancer activity against human MCF7 cells overexpressing assessed as combination index after 72 hrs by MTT assay", "assay_type": "functional"}, "[20]": {"assay": "Toxicity in BALB/c nude mouse xenografted with human MCF7 cells assessed as effect on heart at 2 mg/kg, iv administered every 2 days for 2 weeks measured after 14 days by hematoxylin and eosin staining based histopathological analysis", "assay_type": "organism-based", "settings": "in vivo, 336 h"}, "[21]": {"assay": "Cytotoxicity against human HBMEC cells assessed as combination index after 72 hrs by MTT assay", "assay_type": "cell-based"}, "[22]": {"test_system": "HCT-116", "assay": "Synergistic anticancer activity against human HCT116 cells expressing assessed as combination index after 72 hrs by MTT assay", "assay_type": "functional"}, "[23]": {"test_system": "4T1", "assay": "Reversal of immunosuppression against mouse 4T1 cells implanted in BALB/c mouse assessed as decrease in weight of primary tumor at 2 mg/kg administered intratumorally every 2 days for 2 weeks measured after 14 days", "assay_type": "functional, organism-based"}, "[24]": {"test_system": "MCF7", "assay": "Anticancer activity against human MCF7 cells overexpressing PDK assessed as reduction in cell viability after 72 hrs by MTT assay", "assay_type": "functional, cell-based", "settings": "MCF7, 72 h"}, "[25]": {"test_system": "L02", "assay": "Cytotoxicity against human LO2 cells assessed as reduction in cell viability after 72 hrs by MTT assay", "assay_type": "cell-based", "settings": "L02, 72 h"}, "[26]": {"assay": "Selectivity index, ratio IC50 for cytotoxicity against human LO2 cells assessed as reduction in cell viability after 72 hrs by MTT assay to IC50 for anticancer activity against human MCF7 cells assessed as reduction in cell viability after 72 hrs by MTT assay", "assay_type": "toxicity, cell-based", "settings": "LO2 cells versus MCF7 cells, read-out: Ratio IC50"}, "[27]": {"test_system": "MCF7", "assay": "Antitumor activity against human MCF7 cells xenografted in BALB/c nude mouse assessed as suppression of tumor progression at 2 mg/kg, iv administered every two days for two weeks measured after 14 days relative to control", "assay_type": "functional"}, "[28]": {"test_system": "MCF7", "assay": "Induction of apoptosis in human MCF7 cells assessed as late apoptotic cells at 2 uM after 24 hrs by Annexin V-FITC/propidium iodide staining-based flow cytometric analysis (reference value: 2.97 %)", "assay_type": "functional"}, "[29]": {"test_system": "Mus musculus", "assay": "Modulation of tumor immunosuppressive activity in BALB/c mouse xenografted with mouse 4T1 cells assessed as increase in IL12 expression in serum administered intratumorally every other day for 14 days measured at 2 days post-last dose by ELISA", "assay_type": "functional, organism-based"}, "[30]": {"test_system": "MCF7", "assay": "as §1, with “as decrease in oxygen consumption” for “as effect on extracellular acidification”, “for 6” for “for 4”, “by oligomycin A” for “by glucose”, “of FCCP” for “of oligomycin A”, “by antimycin/rotenone” for “by 2-DG”", "assay_type": "functional, cell-based"}, "[31]": {"assay": "Selectivity index, ratio IC50 for cytotoxicity against human LO2 cells assessed as reduction in cell viability after 72 hrs by MTT assay to IC50 for anticancer activity against human A375 cells assessed as reduction in cell viability after 72 hrs by MTT assay", "assay_type": "toxicity, cell-based", "settings": "LO2 cells versus A375 cells, read-out: Ratio IC50"}, "[32]": {"test_system": "A-375", "assay": "Synergistic anticancer activity against human A375 cells expressing assessed as combination index after 72 hrs by MTT assay", "assay_type": "functional"}, "[33]": {"test_system": "MCF7", "assay": "Induction of apoptosis in human MCF7 cells assessed as necrotic cells at 2 uM after 24 hrs by Annexin V-FITC/propidium iodide staining-based flow cytometric analysis (reference value: 0.10 %)", "assay_type": "functional"}, "[34]": {"assay": "Toxicity in BALB/c nude mouse xenografted with human MCF7 cells assessed as effect on liver at 2 mg/kg, iv administered every 2 days for 2 weeks measured after 14 days by hematoxylin and eosin staining based histopathological analysis", "assay_type": "organism-based", "settings": "in vivo, 336 h"}, "[35]": {"test_system": "MCF7", "assay": "Induction of apoptosis in human MCF7 cells assessed as increase in caspase 9 expression at 2 uM after 48 hrs by Western blot analysis relative to control", "assay_type": "functional"}}, "note": "Active and inactive are the calls of the source. The calls are words filed in the database; no cut-off is given here.", "data": [{"smiles": "CC1(C)CC[C@]2(C(=O)O)CC[C@]3(C)C(=CC[C@@H]4[C@@]5(C)CC[C@H](O[C@@H]6O[C@H](CO[C@@H]7OC[C@H](O)[C@H](O)[C@H]7O)[C@@H](O)[C@H](O)[C@H]6NC(=O)C(Cl)Cl)C(C)(C)[C@@H]5CC[C@]43C)[C@@H]2C1", "values": [{"measurement": "Activity", "setting": "[1]", "value": "Active"}, {"measurement": "Activity", "setting": "[2]", "value": "Active"}, {"measurement": "IC50", "setting": "[3]", "value": 38.2, "unit": "µM"}, {"measurement": "inhibition", "setting": "[4]", "value": "Active"}, {"measurement": "Activity", "setting": "[5]", "value": "Active"}, {"measurement": "Activity", "setting": "[6]", "value": "Non-Toxic"}, {"measurement": "Activity", "setting": "[7]", "value": "inactive"}, {"measurement": "Activity", "setting": "[8]", "value": "Active"}, {"measurement": "Activity", "setting": "[9]", "value": "Active"}, {"measurement": "Activity", "setting": "[10]", "value": "inactive"}, {"measurement": "Activity", "setting": "[11]", "value": "Active"}, {"measurement": "Activity", "setting": "[12]", "value": "Dose-dependent effect"}, {"measurement": "Activity", "setting": "[13]", "value": "Active"}, {"measurement": "Activity", "setting": "[14]", "value": "Non-Toxic"}, {"measurement": "Ratio IC50", "setting": "[15]", "value": 9.87}, {"measurement": "Activity", "setting": "[16]", "value": "Non-Toxic"}, {"measurement": "Ratio IC50", "setting": "[17]", "value": 29.16}, {"measurement": "growth inhibition (GI)", "setting": "[18]", "value": "Active"}, {"measurement": "CI", "setting": "[19]", "value": 0.03}, {"measurement": "Activity", "setting": "[20]", "value": "Non-Toxic"}, {"measurement": "CI", "setting": "[21]", "value": 1.41}, {"measurement": "CI", "setting": "[22]", "value": 0.22}, {"measurement": "Activity", "setting": "[23]", "value": "Active"}, {"measurement": "IC50", "setting": "[24]", "value": 0.43, "unit": "µM"}, {"measurement": "IC50", "setting": "[25]", "value": 53.1, "unit": "µM"}, {"measurement": "selectivity ratio at 72 h", "setting": "[26]", "value": 124}, {"measurement": "Activity", "setting": "[27]", "value": 100, "unit": "%"}, {"measurement": "Activity", "setting": "[28]", "value": 22.92, "unit": "%"}, {"measurement": "Activity", "setting": "[29]", "value": "Active"}, {"measurement": "Activity", "setting": "[30]", "value": "Active"}, {"measurement": "selectivity ratio at 72 h", "setting": "[31]", "value": 14.1}, {"measurement": "CI", "setting": "[32]", "value": 0.7}, {"measurement": "Activity", "setting": "[33]", "value": 4.86, "unit": "%"}, {"measurement": "Activity", "setting": "[34]", "value": "Non-Toxic"}, {"measurement": "fold change (FC)", "setting": "[35]", "value": 6}]}]}
